Experimental data published in patent US20170265474A1, “BICYCLIC COMPOUNDS AS PEST CONTROL AGENTS” (BAYER CROPSCIENCE AKTIENGESELLSCHAFT, priority 2014, published 2017).
Like-named read-outs stand apart in the source and are kept apart here.

Experiments:
[1] = tested on: Myzus persicae; test: Myzus persicae spray test (Chinese cabbage leaf discs); type: in vivo, green peach aphid (Myzus persicae); conditions: foliar, 144 h, application rate 500 g/ha, after 6 days, 100% = all aphids killed, read-out: efficacy
Description: Myzus persicae—Spray Test • Solvent: 78 parts by weight of acetone • 1.5 parts by weight of dimethylformamide • Emulsifier: alkylaryl polyglycol ether To produce a suitable preparation of active compound, 1 part by weight of active compound is dissolved using the specified parts by weight of solvent and made up with water containing an emulsifier concentration of 1000 ppm until the desired concentration is attained. To produce further test concentrations, the formulation is diluted with emulsifier-containing water. Discs of Chinese cabbage leaves (Brassica pekinensis) infested by all stages of the green peach aphid (Myzus persicae) are sprayed with an active compound formulation of the desired concentration. After 6 days, the efficacy in % is determined. 100% means that all the aphids have been killed; 0% means that no aphids have been killed.

[2] = log P by HPLC on reversed-phase (C18) columns, OECD Guideline 117; type: physicochemical; conditions: reversed-phase (C18) HPLC column
Description: The log P values were determined in accordance with OECD Guideline 117 (EC Directive 92/69/EEC) by HPLC (high-performance liquid chromatography) using reversed-phase (RP) columns (C18), by the following methods: [a] The LC-MS determination in the acidic range is carried out at pH 2.7 with 0.1% aqueous formic acid and acetonitrile (contains 0.1% formic acid) as eluents; linear gradient from 10% acetonitrile to 95% acetonitrile. [b] LC-MS determination in the neutral range is effected at pH 7.8 with 0.001 molar aqueous ammonium hydrogencarbonate solution and acetonitrile as eluents; linear gradient from 10% acetonitrile to 95% acetonitrile. Calibration is carried out using unbranched alkan-2-ones (having 3 to 16 carbon atoms) with known log P values (log P values determined on the basis of the retention times by linear interpolation between two successive alkanones).

[3] = tested on: Myzus persicae; test: Myzus persicae spray test (bell pepper plants); type: in vivo, green peach aphid (Myzus persicae); conditions: after 6 days
Description: Myzus persicae—Spray Test • Solvent: 7 parts by weight of dimethylformamide • Emulsifier: alkylaryl polyglycol ether To produce a suitable preparation of active compound, 1 part by weight of active compound is dissolved using the specified parts by weight of solvent and made up with water containing an emulsifier concentration of 1000 ppm until the desired concentration is attained. To produce further test concentrations, the formulation is diluted with emulsifier-containing water. If the addition of ammonium salts or/and penetrants is required, these are each added in a concentration of 1000 ppm to the formulation solution. Bell pepper plants (Capsicum annuum) severely infested with the green peach aphid (Myzus persicae) are treated by spraying with the active compound formulation in the desired concentration. After 6 days, the kill in % is determined. 100% means that all of the aphids have been killed; 0% means that none of the aphids have been killed.

[4] = tested on: Aphis gossypii; test: Aphis gossypii spray test (cotton plants); type: in vivo, cotton aphid (Aphis gossypii); conditions: application rate 4 ppm, after 6 days
Description: Aphis gossypii—Spray Test • Solvent: 7 parts by weight of dimethylformamide • Emulsifier: alkylaryl polyglycol ether To produce a suitable preparation of active compound, 1 part by weight of active compound is dissolved using the specified parts by weight of solvent and made up with water containing an emulsifier concentration of 1000 ppm until the desired concentration is attained. To produce further test concentrations, the formulation is diluted with emulsifier-containing water. If the addition of ammonium salts or/and penetrants is required, these are each added in a concentration of 1000 ppm to the formulation solution. Cotton plants (Gossypium hirsutum) which are heavily infested by the cotton aphid (Aphis gossypii) are sprayed with an active compound formulation of the desired concentration. After 6 days, the kill in % is determined. 100% means that all the aphids have been killed; 0% means that no aphids have been killed.

[5] = tested on: Tetranychus urticae; test: Tetranychus urticae spray test, OP-resistant (bean leaf discs); type: in vivo, greenhouse red spider mite (Tetranychus urticae); conditions: application rate 500 g/ha, after 6 days, 100% = all spider mites killed
Description: Tetranychus urticae—Spray Test, OP-Resistant • Solvent: 78.0 parts by weight of acetone • 1.5 parts by weight of dimethylformamide • Emulsifier: alkylaryl polyglycol ether
To produce a suitable preparation of active compound, 1 part by weight of active compound is dissolved using the specified parts by weight of solvent and made up with water containing an emulsifier concentration of 1000 ppm until the desired concentration is attained. To produce further test concentrations, the formulation is diluted with emulsifier-containing water.
Discs of bean leaves (Phaseolus vulgaris) infested with all stages of the greenhouse red spider mite (Tetranychus urticae) are sprayed with an active compound formulation of the desired concentration.
After 6 days, the efficacy in % is determined. 100% means that all the spider mites have been killed; 0% means that no spider mites have been killed.

[6] = acidic range, pH 2.7, 0.1% aqueous formic acid / acetonitrile, read-out: logP[a]
[7] = neutral range, pH 7.8, 0.001 molar aqueous ammonium hydrogencarbonate / acetonitrile, read-out: logP[b]

| chromatographic logP [2, 6] | chromatographic logP [2, 7] | Structure (SMILES) | pest or weed control at 500 g/ha [1] [%] | also measured |
| --- | --- | --- | --- | --- |
| 4.81 | 4.75 | Cc1cc(F)c(-c2ccc3nc(-c4cccnc4)sc3n2)cc1SCC(F)(F)F [Example 1, 5-[2-Fluoro-4-methyl-5-(2,2,2-trifluoroethylsulfanyl)phenyl]-2-(3-pyridyl)thiazol [5,4-b]pyridine] | 100 | efficacy (kill) ([3]; application rate 4 ppm): 100% |
| 4.67 | 4.64 | Cc1ccc(-c2ccc3nc(-c4cccnc4)sc3n2)cc1SCC(F)(F)F [Example 2, 5-[4-Methyl-3-(2,2,2-trifluoroethylsulfanyl)phenyl]-2-(3-pyridyl)thiazolo[5,4-b]pyridine] | 90 | efficacy (kill) ([3]; application rate 4 ppm): 100% |
| 3.02 | 3.09 | Cc1cc(F)c(-c2ccc3nc(-c4cccnc4)sc3n2)cc1[S+]([O-])CC(F)(F)F (stereo not shown) [Example 3, 5-[2-Fluoro-4-methyl-5-(2,2,2-trifluoroethylsulfinyl)phenyl]-2-(3-pyridyl)thiazolo[5,4-b]pyridine] | – | efficacy (kill) ([3]; application rate 4 ppm): 97% |
| 2.99 | 2.98 | Cc1ccc(-c2ccc3nc(-c4cccnc4)sc3n2)cc1[S+]([O-])CC(F)(F)F (stereo not shown) [Example 4, 5-[4-Methyl-3-(2,2,2-trifluoroethylsulfinyl)phenyl]-2-(3-pyridyl)thiazolo[5,4-b]pyridine] | 90 | efficacy (kill) ([3]; application rate 4 ppm): 95% |
| 2.53 | 2.97 | c1cncc(-c2nc3ccc(N4CCCC4)nc3s2)c1 [Example 6, 2-(3-Pyridyl)-5-pyrrolidin-1-ylthiazolo[5,4-b]pyridine] | – | efficacy (kill) ([3]; application rate 100 ppm): 95% |
| 1.43 | 1.5 | c1cnc(-c2ccc3nc(-c4cccnc4)sc3n2)nc1 [Example 7, 2-(3-Pyridyl)-5-pyrimidin-2-ylthiazolo[5,4-b]pyridine] | – | efficacy (kill) [4]: 80% |
| 2.12 | 2.68 | c1ccc(-c2ccc3nc(-c4cccnc4)sc3n2)nc1 [Example 8, 5-(2-Pyridyl)-2-(3-pyridyl)thiazolo[5,4-b]pyridine] | – | efficacy (kill) ([3]; application rate 4 ppm): 80% |
| 3.99 | 4.06 | Cc1ccc(Nc2ccc3nc(-c4cccnc4)sc3n2)cc1SCC(F)(F)F [Example 9, N-[4-Methyl-3-(2,2,2-trifluoroethylsulfanyl)phenyl]-2-(3-pyridyl)thiazolo[5,4-b]pyridine-5-amine] | – | efficacy [5]: 90% |
| 2.65 | 2.69 | FC(F)(F)c1ccc2nc(-c3cccnc3)sc2n1 [Example 10, 2-(3-Pyridyl)-5-(trifluoromethyl)thiazolo[5,4-b]pyridine] | – | efficacy [5]: 90% |
| 2.1 | 1.95 | c1cncc(-c2nc3ccc(N4CCOCC4)nc3s2)c1 [Example 11, 4-[2-(3-Pyridyl)thiazolo[5,4-b]pyridin-5-yl]morpholine] | 90 | – |
| 4.81 | 4.78 | Cc1ccc(N(C)c2ccc3nc(-c4cccnc4)sc3n2)cc1SCC(F)(F)F [Example 12, N-methyl-N-[4-methyl-3-(2,2,2-trifluoroethylsulfanyl)phenyl]-2-(3-pyridyl)thiazolo[5,4-b]pyridine-5-amine] | 90 | – |
| 3.82 | 3.72 | FC(F)(F)c1cnn(-c2ccc3nc(-c4cccnc4)sc3n2)c1 [Example 13, 2-(3-Pyridyl)-5-[4-(trifluoromethyl)pyrazol-1-yl]thiazolo[5,4-b]pyridine] | – | – |
| 1.34 | – | CNc1ccc2nc(-c3cccnc3)sc2n1 [Example 15] | – | – |
| 1.98 | – | CSCCC(=O)N(C)c1ccc2nc(-c3cccnc3)sc2n1 [Example 22] | 90 | – |
| 2.23 | – | CN(C(=O)c1cccc([S+]([O-])C(F)(F)F)c1)c1ccc2nc(-c3cccnc3)sc2n1 (stereo not shown) [Example 29] | 100 | – |
| 1.25 | – | CN(C(=O)CCS(C)(=O)=O)c1ccc2nc(-c3cccnc3)sc2n1 [Example 30, N-Methyl-3-(methylsulfonyl)-N-[2-(pyridin-3-yl)[1,3]thiazolo[5,4-b]pyridin-5-yl]propanamide] | 90 | – |
| 1.54 | – | CN(C(=O)c1cccc(S(=O)(=O)C(F)(F)F)c1)c1ccc2nc(-c3cccnc3)sc2n1 [Example 31] | 90 | – |
| 1.35 | – | CNC(=O)c1ccc2nc(-c3cccnc3)sc2n1 [Example 32] | – | – |
| 1.53 | – | CCN(C)C(=O)c1ccc2nc(-c3cccnc3)sc2n1 [Example 33] | – | – |
| 2.1 | – | O=C(Nc1cccc(S(=O)(=O)C(F)(F)F)c1)c1ccc2nc(-c3cccnc3)sc2n1 [Example 34] | – | – |
| 2.03 | – | CSCCNC(=O)c1ccc2nc(-c3cccnc3)sc2n1 [Example 35] | 90 | – |
| 3.09 | – | O=C(Nc1cccc([S+]([O-])C(F)(F)F)c1)c1ccc2nc(-c3cccnc3)sc2n1 (stereo not shown) [Example 36] | – | – |
| 2.61 | – | O=C(Nc1ccc2nc(-c3cccnc3)sc2n1)c1cccc([S+]([O-])C(F)(F)F)c1 (stereo not shown) [Example 37] | – | – |
| 1.18 | – | CS(=O)(=O)CCC(=O)Nc1ccc2nc(-c3cccnc3)sc2n1 [Example 38] | – | – |
| 3.79 | 3.83 | FC(F)(F)c1ccn(-c2ccc3nc(-c4cccnc4)sc3n2)n1 [Example 39] | – | – |
| 2.26 | 2.33 | Clc1ccc2nc(-c3cccnc3)sc2n1 [Example 40] | – | – |
| 2.75 | 2.77 | Cc1ccc(Nc2ccc3nc(-c4cccnc4)sc3n2)cc1[S+]([O-])CC(F)(F)F (stereo not shown) [Example 42] | – | – |
